Experimental data reported in publication PMC4051656, “Cyanuric Acid Hydrolase from Azorhizobium caulinodans ORS 571: Crystal Structure and Insights into a New Class of Ser-Lys Dyad Proteins” (PLoS ONE, 2014).

Target: T1, CAH (cyanuric acid hydrolase from Azorhizobium caulinodans ORS 571) (Azorhizobium caulinodans, UniProt A8IKD2)
T1 construct: gene AZC_3892; heterologously expressed and purified; selenomethionine-substituted for the crystal; domains A 1-99, B 108-242, C 249-355; homotetramer
T1 sequence (A8IKD2 1-356): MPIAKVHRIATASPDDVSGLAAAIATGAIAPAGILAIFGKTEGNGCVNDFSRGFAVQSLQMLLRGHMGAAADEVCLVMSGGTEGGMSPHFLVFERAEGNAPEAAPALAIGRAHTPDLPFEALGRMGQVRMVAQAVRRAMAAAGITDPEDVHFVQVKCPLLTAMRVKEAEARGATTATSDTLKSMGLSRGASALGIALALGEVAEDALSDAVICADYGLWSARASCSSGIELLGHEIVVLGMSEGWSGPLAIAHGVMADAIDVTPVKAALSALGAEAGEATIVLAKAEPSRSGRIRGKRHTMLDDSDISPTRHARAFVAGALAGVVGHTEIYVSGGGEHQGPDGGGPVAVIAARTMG
Assay: X-ray crystal structure of complex (SAD, […] Å)
Format: binding
Settings: selenomethionine protein; Tris-HCl pH 7.0-7.5, magnesium sulfate, 20 °C; active site in both subunits; second site on surface of one subunit at lower occupancy

Compound: O=C1CC(=O)NC(=O)N1 [barbituric acid]
- X-ray crystal structure of complex (SAD, 2.7 Å): a molecule of the highly analogous substrate analog, barbituric acid was found
